Consider three compounds from patent US5498522A, “Methods for the use of spermidine/spermine N^1 -acetyltransferase as a prognostic indicator and/or a tumor response marker” (priority 1993, dated 1996).

The subject of assay [1] is spermidine/spermine N^1 -acetyltransferase (SSAT). Put plainly: SSAT induction in human tumor xenografts in athymic mice in-vivo. The note with it: for level of induction of SSAT: 40 mg/kg every 8 hours for 5 days, 16 hours after final injection; for Avg. SSAT Activity: measured 24 hours after final treatment (Table 8). The method, then: (§1) For the in-vivo treatment, 10^7 cultured MALME-3 melanoma cells were injected subcutaneously into 20 gram female nude athymic mice. After four in-vivo passages, tumor was removed and 40-50 mm^3 fragments were selected for implantation into mice via subcutaneous trocar implantation. Mice developing palpable tumors of a similar size were divided into different treatment groups comprising mice per group. Following treatment of the mice with a dosage approaching the maximally tolerated dose of the respective bis-ethyl spermine analog, the tumor cells comprising the human xenograft were removed and assayed for SSAT induction. […] Also indicated in Table 1, the level of SSAT induction in-vivo by BESPM was less than 20 fold that of BEHSPM, and the level of SSAT induction in-vivo by BENSPM was about 6 fold greater than that of BESPM. Thus, a conclusion from the results depicted in Table 1 is the rank order in effectiveness of the his-ethyl spermine analogs to induce SSAT levels in-vitro correlated well with their effectiveness to induce SSAT levels in-vivo.
In accordance with the above methods for assaying the induction of SSAT levels in tumor cell lines treated in-vitro and xenografts treated in-vivo, the induction pattern also correlates fairly well amongst different clonal lines of a particular tumor type. This can be illustrated with melanoma clonal lines LOX, SH-1, PANUT-3, and MALME-3.
In accordance with the above methods for assaying the induction of SSAT levels in tumor cell lines treated in-vitro and xenografts treated in-vivo, the induction pattern also correlates fairly well amongst carcinomas of solid organs. This can be illustrated with malignant clonal lines A121, A549, and HT29.
Note that the highest drug dosages for each analog approach the maximally tolerated dosage for that particular analog (for example, BEHSPM at 6 mg/kg; BESPM at […]; and BENSPN at 80 mg/kg were tolerated by treated animals, whereas higher doses were toxic). Tumor cells comprising the human xenograft were removed from two animals of each group and assayed for SSAT induction. […] Thus, the antitumor activity for these three analogs correlated with their ability to induce SSAT activity in the same tumor cells growing in-vitro and in-vivo, with the rank order of effectiveness in inducing SSAT levels being: BENSPM>BESPM>BEHSPM (Table 4).
Additional studies were performed using BENSPM treatment of human xenografts to determine if there exists a correlation between antitumor activity and SSAT induction in-vivo. SSAT activity was measured using cell extracts obtained by sonication, in 5 mMN-2 hydroxypiperazine-N^2 -ethanesulfonic acid (pH 7.2) containing 1 mM dithiothreitol, of tumor biopsy from treated mice, and tumor biopsy from control mice. The cytosolic extract resulting from a 1 hour centrifugation at 35,000 rpm in a Spinco 40 rotor was used as the source of the enzyme for the assay of SSAT activity. The cytosolic extract was incubated with 10 μmol HEPES buffer, pH7.8, 0.15 nmol spermidine, and 0.5 nmol [1-^14 C] acetylCoenzyme A, in a final volume of 50 μl, for 5 minutes at 37° C. The reaction was stopped by chilling, the addition of 20 μl of 0.5 M NH2 OH.Cl, and heating in a boiling water bath for 3 minutes. After centrifugation to remove precipitated protein, 50 μl of the reaction was spotted on a disc of P-81 phosphocellulose and counted for radioactivity. Protein concentration was also measured so that enzyme activity was expressed as picomoles of acetylspermine synthesized per minute per milligram of protein.
To illustrate this embodiment, SSAT activity was analyzed in tumor tissue and normal tissue from 2 mice following BENSPM treatment of 5 mice at 40 mg/kg, three times daily, for 6 days (Porter et al., 1993, supra). […]
On the technique in general: Xenograft models place foreign cells or tissue in a host animal.

The test system of assay [2] is MALME-3 human melanoma xenografts. Put plainly: antitumor response against MALME-3 human melanoma xenografts in mice. It is filed as in vivo. The settings on record: for suppression of tumor growth after cessation of treatment: every 8 hours for 6 days, most effective dose; for % T/C (tumor growth suppression) / Regrowth Delay (time for median tumor volume to reach 200 mm^3): maximally tolerated dose. As for the experimental part:
b. Anticancer effects of polyamine analog therapy are determined by assessing the antiproliferative activity on the treated solid tumor by measuring one or more responses including tumor growth suppression, tumor regression, or repression of regrowth. Tumors were measured in three dimensions and tumor volume was calculated according to the formula:
[…] where 1 represents length; w--width; and h--height. Tumor sizes were monitored 2 times/week until the median volume (V=0.4(a^2 ×b) where a is the smaller of the two perpendicular tumor diameters). As an indication of drug toxicity, animal weights were also recorded at the time of tumor volume measurement. Statistical analyses were performed on mouse tumor size and weight parameters by using the Mann-Whitney test.
Tumor growth suppression was measured by plotting the mean tumor volume versus the number of days post-inoculation with polyamine analog (growth curve analyses). Suppression is determined by comparison with the growth of untreated tumors (%T/C). More specifically,: %T/C is (treated tumor volume minus pretreatment volume) divided by (control tumor volume minus pretreatment volume)×100. Typically this is measured either when the control tumor volume reaches 1000 mm^3, or at the last day of treatment.
Tumor regression is measured as a percentage representing the average percentage of decrease in tumor volume from the largest pretreatment volume value.
Repression of regrowth is represented as regrowth delay, determined as the number of days following cessation of treatment when median group tumor volume exceeds 200 mm^3 (an arbitrary indication of regrowth which was determined statistically).
as §1
The in-vivo antitumor activities of BESPM, BEHSPM, and BENSPM, were compared against various human xenografts in nude athymic mice. Cultured human tumor cells were first passaged several times in female HSD nude athymic mice. Fragments of resultant tumor were implanted into mice via subcutaneous trocar implantation. Mice of different treatment groups were treated with one or more of the three bis-ethyl spermine analogs BESPM, BEHSPM, and BENSPM. Anti-proliferative activity was monitored by antitumor responses including tumor growth suppression, tumor regression, or repression of regrowth.
As illustrated in Table 1 with MALME-3 human melanoma cells, the rank order effectiveness of three polyamine analogs in inducing SSAT levels both in-vitro and in-vivo were BENSPM>BESPM>BEHSPM, with substantial differences in induction between them. The same three polyamine analogs were analyzed for their effectiveness in inducing a potent antitumor response in-vivo. Mice developing palpable tumors of a similar size were divided into different treatment groups comprising 5 mice per treatment group, and 10 control mice per treatment group. […]

The subject of assay [3] is S-adenosylmethionine decarboxylase (SAMDC). The note with it: in-vitro; cited from earlier work.
In assay [4] the test system is ornithine decarboxylase (ODC). The settings on record: in-vitro; cited from earlier work.
[5] abbreviates: MALME-3 xenograft, maximally tolerated dose, every 8 hours for 6 days.
Where [6] appears, read: MALME-3 xenograft, 40 mg/kg every 8 hours for 5 days.

“Also recorded” adds a separate entry of the source.

`CCNCCCNCCCNCCCNCC` [BENSPM, N^1,N^11 -bis(ethyl)norspermine]: the SSAT induction in-vivo in assay [1] (A121 xenograft, BENSPM 40 mg/kg 3x/day 6 days, 16 hours post-treatment) is listed as 2,905 pmol/min/mg; in assay [1] (A549 xenograft, BENSPM 40 mg/kg 3x/day 6 days, 16 hours post-treatment), 14,295 pmol/min/mg; in assay [1] (HT29 xenograft, BENSPM 40 mg/kg 3x/day 6 days, 16 hours post-treatment) it was 3,535 pmol/min/mg; in assay [1] (LOX xenograft, BENSPM 40 mg/kg 3x/day 6 days, 16 hours post-treatment), 160 (200/115) pmol/min/mg; in assay [1] (MALME-3 xenograft, BENSPM 40 mg/kg 3x/day 6 days, 16 hours post-treatment (Table 2)) it was 13,710 (11,490/15,930) pmol/min/mg; in assay [1] (setting [5]), 15,700 pmol/min/mg. The SSAT induction in-vivo in assay [1] (PANUT-3 xenograft, BENSPM 40 mg/kg 3x/day 6 days, 16 hours post-treatment) is on record as 25,575 (23,140/22,010) pmol/min/mg; in assay [1] (SH-1 xenograft, BENSPM 40 mg/kg 3x/day 6 days, 16 hours post-treatment), 7,150 (7,495/6,810) pmol/min/mg. Besides, the “SSAT activity” value in assay [1] (A121 xenograft, measured 24 hours after final treatment (Table 9)) is reported as 2905 pmol/min/mg; in assay [1] (A549 xenograft, measured 24 hours after final treatment (Table 9)), 14295 pmol/min/mg; in assay [1] (HT29 xenograft, measured 24 hours after final treatment (Table 9)) it was 3535 pmol/min/mg; in assay [1] (PANUT-3 tumor, 80 mg/kg, 2 wks post-treatment), 130 pmol/min/mg. The “level of induction of SSAT” value in assay [1] (LOX xenograft) is on record as 160 pmol/mg/min; in assay [1] (MALME-3 xenograft), 24,018 pmol/mg/min. In addition, the “Avg. SSAT Activity” value in assay [1] (LOX xenograft) was 157 pmol/min/mg; in assay [1] (MALME-3M xenograft), 13,710 pmol/min/mg; in assay [1] (PANUT-3 xenograft), 22,750 pmol/min/mg; in assay [1] (SH-1 xenograft), 7,150 pmol/min/mg. In assay [1] (MALME-3 xenograft), the “SSAT induction in-vivo relative to BESPM” value is recorded as “about 6 fold”. The “SSAT induction, relative” value in assay [1] (treated in-vitro and in-vivo, compared to two other analogs) is given as “greatest induction of SSAT”. For the same compound, the “% T/C at 1 g” value in assay [2] (MALME-3M, BENSPM at 80 mg/kg) is reported as < 0%. In addition, the “Tumor Regression” value in assay [2] (MALME-3M, BENSPM at 80 mg/kg) is reported as “Present”. In assay [2] (MALME-3M, BENSPM at 80 mg/kg, dt 13 days), the “Regrowth Delay” value is > 4.8 × dt. Further, the “No Regrowth” value in assay [2] (MALME-3M, BENSPM at 80 mg/kg, for duration of experiment) is 2/5. Moreover, the “lack of regrowth (FIG. 6)” value in assay [2] (setting [6]) is “two mice examined of the remaining five mice treated”. Further, the “regrowth delay (FIG. 6)” value in assay [2] (setting [6]) is given as “significant regrowth delay”. The “tumor regression (FIG. 6)” value in assay [2] (setting [6]) is “showed tumor regression”. For the same compound, in assay [2] (MALME-3 xenograft), the “suppression of tumor growth after cessation of treatment” value (“suppression of tumor growth” below) is 40 days. The “% T/C (tumor growth suppression)” value in assay [2] (MALME-3 xenograft) is given as 10%. The “Regrowth Delay (time for median tumor volume to reach 200 mm^3)” value in assay [2] (MALME-3 xenograft) was 37 days. Besides, the “antitumor activity” value in assay [2] (MALME-3 xenografts) was “most effective of the three”. The “apparent curing of xenografts on retreatment” value in assay [2] (MALME-3 xenografts, retreatment 2 weeks later) is “about 20%”. Also, the SAMDC suppression entry in assay [3] was “similarly suppress ornithine and S-adenosyl-methionine decarboxylase levels”. Besides, the ODC suppression entry in assay [4] was “similarly suppress ornithine and S-adenosyl-methionine decarboxylase levels”.

Regarding `CCNCCCNCCCCNCCCNCC` [BESPM, N^1,N^12-bis(ethyl)spermine], the “SSAT induction in-vivo relative to BEHSPM” value in assay [1] (MALME-3 xenograft) was “less than 20 fold”. Further, in assay [2] (MALME-3 xenograft), the “suppression of tumor growth” value was found to be 30 days, the “% T/C (tumor growth suppression)” value was 34% and the “Regrowth Delay (time for median tumor volume to reach 200 mm^3)” value came to 27 days. The “antitumor activity” value in assay [2] (MALME-3 xenografts) is given as “significant antitumor activity”. For the same compound, the SAMDC suppression result in assay [3] was “rapidly suppress ODC and SAMDC; also recorded: similarly suppress ornithine and S-adenosyl-methionine decarboxylase levels”. In addition, in assay [4], the ODC suppression entry is “rapidly suppress ODC and SAMDC; also recorded: similarly suppress ornithine and S-adenosyl-methionine decarboxylase levels”.

In assay [1] (setting [5]), `CCNCCCCNCCCCNCCCCNCC` [BEHSPM, N^1,N^14 -bis(ethyl)homospermine] showed an SSAT induction in-vivo of 125 pmol/min/mg. Moreover, in assay [2] (MALME-3 xenograft), the “suppression of tumor growth” value is 18 days, the “% T/C (tumor growth suppression)” value turned out to be 43% and the “Regrowth Delay (time for median tumor volume to reach 200 mm^3)” value is 14 days. Also, the “antitumor activity” value in assay [2] (MALME-3 xenografts) was “less effective than BESPM”. Moreover, in assay [3], the SAMDC suppression result is “similarly suppress ornithine and S-adenosyl-methionine decarboxylase levels”. The ODC suppression result in assay [4] is “similarly suppress ornithine and S-adenosyl-methionine decarboxylase levels”.
